Assay results reported in patent publication US6444617B1, “Fused-heterocycle dicarboxylic acid diamide derivatives or salts thereof, herbicide and usage thereof” (Nihon Nohyaku Co., Ltd., priority 1998, dated 2002).

Columns and labels:
Assay type in all cases: in vivo
soybean plant = assay: Test Example 4: phytotoxicity to upland crop plants, treatment after emergence; details: dosage 5 kg/ha, sprayed after emergence, judged 14 days after treatment
Procedure, shortened: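 Weeds and soybean grown in soil-filled vats to set leaf stages, then sprayed post-emergence with the compound at a prescribed concentration. Weed-killing rate and crop phytotoxicity judged 14 days after treatment.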

wheat = assay: as above; details: dosage 5 kg/ha, sprayed after emergence, judged 14 days after treatment
Procedure, shortened: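 Upland weeds and crop plants (soybean, wheat) are grown from seed in soil until they reach given leaf stages, then treated by spraying with the compound-containing agent; effects are judged two weeks later.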

wheat (Wh) = assay: Test Example 3: phytotoxicity to upland crop plants, treatment before emergence; details: dosage 5 kg/ha
Procedure, shortened: (§1)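 Phytotoxicity scores for soybean and wheat were assigned by a set criterion 14 days after a pre-emergence spray of a liquid preparation containing the test compound at a prescribed concentration.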

soybean plant (So) = assay: as above; details: dosage 5 kg/ha
Procedure, shortened: as §1

[1] = tested on: barnyard grass (Echinochloa crus-galli Beauv.), Ec; assay: Test Example 4: herbicidal effect on upland weeds after emergence; details: dosage 5 kg/ha; sprayed after emergence; judged 14 days after treatment
Procedure, shortened: (§2)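 Seeds sown in soil and covered. Plants raised to specified leaf stages. Agent with test compound at a prescribed concentration sprayed. Herbicidal effect and crop damage scored after 14 days as weed-killing rate.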

[2] = tested on: forxtail grass (Alopecurus aequalis var. amurensis Ohwi), Am; assay: as above; details: dosage 5 kg/ha; sprayed after emergence; judged 14 days after treatment
Procedure, shortened: as §2

[3] = tested on: cleavers (Galium aparine L.), Ga; assay: as above; details: dosage 5 kg/ha; sprayed after emergence; judged 14 days after treatment
Procedure, shortened: as §2

[4] = tested on: bird's eye speedwell (Veronica persica Poir.), Vp; assay: as above; details: dosage 5 kg/ha; sprayed after emergence; judged 14 days after treatment
Procedure, shortened: as §2

[5] = tested on: cocklebur (Xanthium strumarium L.), Xs; assay: as above; details: dosage 5 kg/ha; sprayed after emergence; judged 14 days after treatment
Procedure, shortened: as §2

[6] = tested on: velvetleaf (Abutilon theophtasti L.), At; assay: as above; details: dosage 5 kg/ha; sprayed after emergence; judged 14 days after treatment
Procedure, shortened: as §2

[7] = tested on: barnyard grass (Echinochloa crus-galli Beauv.), Ec; assay: Test Example 3: herbicidal effect on upland weeds before emergence; details: dosage 5 kg/ha
Procedure, shortened: (§3)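 Herbicidal activity was rated from kill rate determined 14 days post-spray, the compound having been applied pre-emergence as a liquid agent.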

[8] = tested on: forxtail grass (Alopecurus aequalis var. amurensis Ohwi), Am; assay: as above; details: foxtail grass, dosage 5 kg/ha
Procedure, shortened: as §3

[9] = tested on: cleavers (Galium aparine L.), Ga; assay: as above; details: dosage 5 kg/ha
Procedure, shortened: as §3

[10] = tested on: bird's eye speedwell (Veronica persica Poir.), Vp; assay: as above; details: dosage 5 kg/ha
Procedure, shortened: as §3

[11] = tested on: cocklebur (Xanthium strumarium L.), Xs; assay: as above; details: dosage 5 kg/ha
Procedure, shortened: as §3

[12] = tested on: velvetleaf (Abutilon theophtasti L.), At; assay: as above; details: dosage 5 kg/ha
Procedure, shortened: as §3

[13] = tested on: bulrush (Scirpus juncoides Roxb.); assay: Test Example 2: herbicidal effect on paddy field weeds after emergence; details: Dosage 5 kg/ha; one-leaved stage; 21 days after treatment
Procedure, shortened: (§4)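 Weeds in flooded paddy-soil pots were grown to the one-leaved stage, then the soil was treated with the compound solution at a set dosage.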

[14] = tested on: barnyard grass (Echinochloa crus-galli Beauv.); assay: as above; details: Dosage 5 kg/ha; one-leaved stage; 21 days after treatment
Procedure, shortened: as §4

[15] = tested on: monochoria (Monochoria vaginalis Presl); assay: as above; details: Dosage 5 kg/ha; one-leaved stage; 21 days after treatment
Procedure, shortened: as §4

[16] = tested on: bulrush (Scirpus juncoides Roxb.); assay: Test Example 1: herbicidal effect on paddy field weeds before emergence; details: Dosage 5 kg/ha
Procedure, shortened: (§5)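 Grading reflects percent control relative to untreated plots, evaluated three weeks post-application. Treatment was a soil application of compound solution, predetermined dose, made to paddy-state pots before weed seeds germinated.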

[17] = tested on: barnyard grass (Echinochloa crus-galli Beauv.); assay: as above; details: Dosage 5 kg/ha
Procedure, shortened: as §5

SMILES | Phytotoxicity So (soybean plant) | Phytotoxicity Wh (wheat) | Phytotoxicity Wh (wheat (Wh)) | Phytotoxicity So (soybean plant (So)) | Herbicidal effect Ec [1] | Herbicidal effect Am [2] | Herbicidal effect Ga [3] | Herbicidal effect Vp [4] | Herbicidal effect Xs [5] | Herbicidal effect At [6] | Herbicidal effect Ec [7] | Herbicidal effect Am [8] | Herbicidal effect Ga [9] | Herbicidal effect Vp [10] | Herbicidal effect Xs [11] | Herbicidal effect At [12] | Post-emergence treatment Bulrush (herbicidal effect) [13] | Post-emergence treatment Barnyard grass (herbicidal effect) [14] | Post-emergence treatment Monochoria (herbicidal effect) [15] | Pre-emergence treatment Bulrush (herbicidal effect) [16] | further results
CCc1ccc(Cl)c(CC)c1NC(=O)c1cc2c(nc1C(=O)NC1CCCC1)SCCC2 [compound 519] | 4 (Crop-killing rate is 90-99%.) | 5 (Crop-killing rate is 100%.) | 5 (Crop-killing rate is 100%.) | 4 (Crop-killing rate is 90-99%.) | 5 (Weed-killing rate is 100%.) | 5 (Weed-killing rate is 100%.) | 5 (Weed-killing rate is 100%.) | 5 (Weed-killing rate is 100%.) | 5 (Weed-killing rate is 100%.) | 5 (Weed-killing rate is 100%.) | 5 (Weed-killing rate is 100%.) | 5 (Weed-killing rate is 100%.) | 5 (Weed-killing rate is 100%.) | 5 (Weed-killing rate is 100%.) | 5 (Weed-killing rate is 100%.) | 5 (Weed-killing rate is 100%.) | 5 (Weed-killing rate is 100%.) | 5 (Weed-killing rate is 100%.) | 5 (Weed-killing rate is 100%.) | 5 (Weed-killing rate is 100%.) | Pre-emergence treatment Barnyard grass (herbicidal effect) [17]: 5 (Weed-killing rate is 100%.)
Cc1c(Cl)cccc1NC(=O)c1cc2c(nc1C(=O)NCC(C)C)SCCC2 [compound 527] | 5 (Crop-killing rate is 100%.) | 5 (Crop-killing rate is 100%.) | 5 (Crop-killing rate is 100%.) | 5 (Crop-killing rate is 100%.) | 5 (Weed-killing rate is 100%.) | 5 (Weed-killing rate is 100%.) | 5 (Weed-killing rate is 100%.) | 5 (Weed-killing rate is 100%.) | 4 (Weed-killing rate is 90-99%.) | 5 (Weed-killing rate is 100%.) | 5 (Weed-killing rate is 100%.) | 5 (Weed-killing rate is 100%.) | 5 (Weed-killing rate is 100%.) | 5 (Weed-killing rate is 100%.) | 4 (Weed-killing rate is 90-99%.) | 5 (Weed-killing rate is 100%.) | 5 (Weed-killing rate is 100%.) | 5 (Weed-killing rate is 100%.) | 5 (Weed-killing rate is 100%.) | 5 (Weed-killing rate is 100%.) | Pre-emergence treatment Barnyard grass (herbicidal effect) [17]: 5 (Weed-killing rate is 100%.)
CCCNC(=O)c1nc2c(cc1C(=O)Nc1c(CC)ccc(Cl)c1CC)CCSC2 [compound 534] | 4 (Crop-killing rate is 90-99%.) | 4 (Crop-killing rate is 90-99%.) | 4 (Crop-killing rate is 90-99%.) | 3 (Crop-killing rate is 70-89%.) | 5 (Weed-killing rate is 100%.) | 5 (Weed-killing rate is 100%.) | 5 (Weed-killing rate is 100%.) | 5 (Weed-killing rate is 100%.) | 5 (Weed-killing rate is 100%.) | 5 (Weed-killing rate is 100%.) | 5 (Weed-killing rate is 100%.) | 5 (Weed-killing rate is 100%.) | 5 (Weed-killing rate is 100%.) | 5 (Weed-killing rate is 100%.) | 5 (Weed-killing rate is 100%.) | 5 (Weed-killing rate is 100%.) | 5 (Weed-killing rate is 100%.) | 5 (Weed-killing rate is 100%.) | 5 (Weed-killing rate is 100%.) | 5 (Weed-killing rate is 100%.) | Pre-emergence treatment Barnyard grass (herbicidal effect) [17]: 5 (Weed-killing rate is 100%.)
CCCNC(=O)c1nc2c(cc1C(=O)Nc1c(CC)ccc(Cl)c1CC)CSCC2 [compound 558] | 5 (Crop-killing rate is 100%.) | 5 (Crop-killing rate is 100%.) | 5 (Crop-killing rate is 100%.) | 5 (Crop-killing rate is 100%.) | 5 (Weed-killing rate is 100%.) | 5 (Weed-killing rate is 100%.) | 5 (Weed-killing rate is 100%.) | 5 (Weed-killing rate is 100%.) | 5 (Weed-killing rate is 100%.) | 5 (Weed-killing rate is 100%.) | 5 (Weed-killing rate is 100%.) | 5 (Weed-killing rate is 100%.) | 5 (Weed-killing rate is 100%.) | 5 (Weed-killing rate is 100%.) | 5 (Weed-killing rate is 100%.) | 5 (Weed-killing rate is 100%.) | 5 (Weed-killing rate is 100%.) | 5 (Weed-killing rate is 100%.) | 5 (Weed-killing rate is 100%.) | 5 (Weed-killing rate is 100%.) | Pre-emergence treatment Barnyard grass (herbicidal effect) [17]: 5 (Weed-killing rate is 100%.)
CCNC(=O)c1nc2occc2cc1C(=O)Nc1c(CC)ccc(Cl)c1CC [compound 774] | 4 (Crop-killing rate is 90-99%.) | 5 (Crop-killing rate is 100%.) | 5 (Crop-killing rate is 100%.) | 4 (Crop-killing rate is 90-99%.) | 5 (Weed-killing rate is 100%.) | 5 (Weed-killing rate is 100%.) | 5 (Weed-killing rate is 100%.) | 5 (Weed-killing rate is 100%.) | 5 (Weed-killing rate is 100%.) | 5 (Weed-killing rate is 100%.) | 5 (Weed-killing rate is 100%.) | 5 (Weed-killing rate is 100%.) | 5 (Weed-killing rate is 100%.) | 5 (Weed-killing rate is 100%.) | 5 (Weed-killing rate is 100%.) | 5 (Weed-killing rate is 100%.) | 5 (Weed-killing rate is 100%.) | 5 (Weed-killing rate is 100%.) | 5 (Weed-killing rate is 100%.) | 5 (Weed-killing rate is 100%.) | Pre-emergence treatment Barnyard grass (herbicidal effect) [17]: 5 (Weed-killing rate is 100%.)
